Test results from ChEMBL document CHEMBL4765467, “Improving Thermodynamic Stability and Anticoagulant Activity of a Thrombin Binding Aptamer by Incorporation of 8-trifluoromethyl-2'-deoxyguanosine” (J Med Chem, 2021).
The source made the active and inactive calls. The rule behind the calls is not given here.

Experiments:
[1] = Thermodynamic stability assessed as change in melting temperature by CD spectroscopy relative to TBA; assay type: physicochemical
Plasma [2] = assay: Anticoagulant activity in human plasma assessed prothrombin time at 0.25 to 1 uM; assay type: functional; conditions: dose 0.25-1 µM
[3] = Stability in 50% human plasma assessed as compound degradation at 50 uM measured within 3 hrs by PAGE analysis; assay type: ADME, cell-free
Plasma [4] = assay: Anticoagulant activity in human plasma assessed prothrombin time in presence of 1.5 fold complementary sequence of TBA; assay type: functional, cell-free
[5] = Stability in 50% human plasma assessed as compound degradation at 50 uM measured within 3 hrs by PAGE analysis relative to TBA; assay type: ADME, cell-free
Plasma [6] = assay: Anticoagulant activity in human plasma assessed prothrombin time in presence of complementary sequence of TBA; assay type: functional, cell-free

deltaTm [1] | Stabilty [3] | Stabilty [5] | SMILES | PT (Plasma [2]) | Activity (Plasma [4]) | Activity (Plasma [6])
5.7 °C | Unstable | – | Cc1cn([C@H]2C[C@H](OP(=O)(O)OC[C@H]3O[C@@H](n4cnc5c(=O)[nH]c(N)nc54)C[C@@H]3OP(=O)(O)OC[C@H]3O[C@@H](n4cnc5c(=O)[nH]c(N)nc54)C[C@@H]3OP(=O)(O)OC[C@H]3O[C@@H](n4cc(C)c(=O)[nH]c4=O)C[C@@H]3OP(=O)(O)OC[C@H]3O[C@@H](n4cnc5c(=O)[nH]c(N)nc54)C[C@@H]3OP(=O)(O)OC[C@H]3O[C@@H](n4cc(C)c(=O)[nH]c4=O)C[C@@H]3OP(=O)(O)OC[C@H]3O[C@@H](n4cnc5c(=O)[nH]c(N)nc54)C[C@@H]3OP(=O)(O)OC[C@H]3O[C@@H](n4cnc5c(=O)[nH]c(N)nc54)C[C@@H]3OP(=O)(O)OC[C@H]3O[C@@H](n4cc(C)c(=O)[nH]c4=O)C[C@@H]3OP(=O)(O)OC[C@H]3O[C@@H](n4cc(C)c(=O)[nH]c4=O)C[C@@H]3OP(=O)(O)OC[C@H]3O[C@@H](n4cnc5c(=O)[nH]c(N)nc54)C[C@@H]3OP(=O)(O)OC[C@H]3O[C@@H](n4cnc5c(=O)[nH]c(N)nc54)C[C@@H]3O)[C@@H](COP(=O)(O)O[C@H]3C[C@H](n4cc(C)c(=O)[nH]c4=O)O[C@@H]3COP(=O)(O)O[C@H]3C[C@H](n4cnc5c(=O)[nH]c(N)nc54)O[C@@H]3COP(=O)(O)O[C@H]3C[C@H](n4c(C(F)(F)F)nc5c(=O)[nH]c(N)nc54)O[C@@H]3COP(=O)(O)O)O2)c(=O)[nH]c1=O | 18.3 s | – | –
-17.3 °C | Unstable | – | Cc1cn([C@H]2C[C@H](OP(=O)(O)OC[C@H]3O[C@@H](n4cnc5c(=O)[nH]c(N)nc54)C[C@@H]3OP(=O)(O)OC[C@H]3O[C@@H](n4cnc5c(=O)[nH]c(N)nc54)C[C@@H]3OP(=O)(O)OC[C@H]3O[C@@H](n4cc(C)c(=O)[nH]c4=O)C[C@@H]3OP(=O)(O)OC[C@H]3O[C@@H](n4cnc5c(=O)[nH]c(N)nc54)C[C@@H]3OP(=O)(O)OC[C@H]3O[C@@H](n4cc(C)c(=O)[nH]c4=O)C[C@@H]3OP(=O)(O)OC[C@H]3O[C@@H](n4cnc5c(=O)[nH]c(N)nc54)C[C@@H]3OP(=O)(O)OC[C@H]3O[C@@H](n4cnc5c(=O)[nH]c(N)nc54)C[C@@H]3OP(=O)(O)OC[C@H]3O[C@@H](n4cc(C)c(=O)[nH]c4=O)C[C@@H]3OP(=O)(O)OC[C@H]3O[C@@H](n4cc(C)c(=O)[nH]c4=O)C[C@@H]3OP(=O)(O)OC[C@H]3O[C@@H](n4cnc5c(=O)[nH]c(N)nc54)C[C@@H]3OP(=O)(O)OC[C@H]3O[C@@H](n4cnc5c(=O)[nH]c(N)nc54)C[C@@H]3O)[C@@H](COP(=O)(O)O[C@H]3C[C@H](n4cc(C)c(=O)[nH]c4=O)O[C@@H]3COP(=O)(O)O[C@H]3C[C@H](n4c(C(F)(F)F)nc5c(=O)[nH]c(N)nc54)O[C@@H]3COP(=O)(O)O[C@H]3C[C@H](n4cnc5c(=O)[nH]c(N)nc54)O[C@@H]3COP(=O)(O)O)O2)c(=O)[nH]c1=O | 9.9 s | – | –
7.6 °C | Unstable | – | Cc1cn([C@H]2C[C@H](OP(=O)(O)OC[C@H]3O[C@@H](n4cnc5c(=O)[nH]c(N)nc54)C[C@@H]3OP(=O)(O)OC[C@H]3O[C@@H](n4cnc5c(=O)[nH]c(N)nc54)C[C@@H]3OP(=O)(O)OC[C@H]3O[C@@H](n4cc(C)c(=O)[nH]c4=O)C[C@@H]3OP(=O)(O)OC[C@H]3O[C@@H](n4cnc5c(=O)[nH]c(N)nc54)C[C@@H]3OP(=O)(O)OC[C@H]3O[C@@H](n4cc(C)c(=O)[nH]c4=O)C[C@@H]3OP(=O)(O)OC[C@H]3O[C@@H](n4c(C(F)(F)F)nc5c(=O)[nH]c(N)nc54)C[C@@H]3OP(=O)(O)OC[C@H]3O[C@@H](n4cnc5c(=O)[nH]c(N)nc54)C[C@@H]3OP(=O)(O)OC[C@H]3O[C@@H](n4cc(C)c(=O)[nH]c4=O)C[C@@H]3OP(=O)(O)OC[C@H]3O[C@@H](n4cc(C)c(=O)[nH]c4=O)C[C@@H]3OP(=O)(O)OC[C@H]3O[C@@H](n4cnc5c(=O)[nH]c(N)nc54)C[C@@H]3OP(=O)(O)OC[C@H]3O[C@@H](n4cnc5c(=O)[nH]c(N)nc54)C[C@@H]3O)[C@@H](COP(=O)(O)O[C@H]3C[C@H](n4cc(C)c(=O)[nH]c4=O)O[C@@H]3COP(=O)(O)O[C@H]3C[C@H](n4cnc5c(=O)[nH]c(N)nc54)O[C@@H]3COP(=O)(O)O[C@H]3C[C@H](n4cnc5c(=O)[nH]c(N)nc54)O[C@@H]3COP(=O)(O)O)O2)c(=O)[nH]c1=O | 21.9 s | – | –

The remaining lines, values behind:

SMILES | deltaTm [1] | Stabilty [3] | Stabilty [5] | PT (Plasma [2]) | Activity (Plasma [4]) | Activity (Plasma [6])
Cc1cn([C@H]2C[C@H](OP(=O)(O)OC[C@H]3O[C@@H](n4cnc5c(=O)[nH]c(N)nc54)C[C@@H]3OP(=O)(O)OC[C@H]3O[C@@H](n4cnc5c(=O)[nH]c(N)nc54)C[C@@H]3OP(=O)(O)OC[C@H]3O[C@@H](n4cc(C)c(=O)[nH]c4=O)C[C@@H]3OP(=O)(O)OC[C@H]3O[C@@H](n4c(C(F)(F)F)nc5c(=O)[nH]c(N)nc54)C[C@@H]3OP(=O)(O)OC[C@H]3O[C@@H](n4cc(C)c(=O)[nH]c4=O)C[C@@H]3OP(=O)(O)OC[C@H]3O[C@@H](n4cnc5c(=O)[nH]c(N)nc54)C[C@@H]3OP(=O)(O)OC[C@H]3O[C@@H](n4cnc5c(=O)[nH]c(N)nc54)C[C@@H]3OP(=O)(O)OC[C@H]3O[C@@H](n4cc(C)c(=O)[nH]c4=O)C[C@@H]3OP(=O)(O)OC[C@H]3O[C@@H](n4cc(C)c(=O)[nH]c4=O)C[C@@H]3OP(=O)(O)OC[C@H]3O[C@@H](n4cnc5c(=O)[nH]c(N)nc54)C[C@@H]3OP(=O)(O)OC[C@H]3O[C@@H](n4cnc5c(=O)[nH]c(N)nc54)C[C@@H]3O)[C@@H](COP(=O)(O)O[C@H]3C[C@H](n4cc(C)c(=O)[nH]c4=O)O[C@@H]3COP(=O)(O)O[C@H]3C[C@H](n4cnc5c(=O)[nH]c(N)nc54)O[C@@H]3COP(=O)(O)O[C@H]3C[C@H](n4cnc5c(=O)[nH]c(N)nc54)O[C@@H]3COP(=O)(O)O)O2)c(=O)[nH]c1=O | -3.1 °C | Unstable | – | 19.1 s | – | –
Cc1cn([C@H]2C[C@H](OP(=O)(O)OC[C@H]3O[C@@H](n4cnc5c(=O)[nH]c(N)nc54)C[C@@H]3OP(=O)(O)OC[C@H]3O[C@@H](n4cnc5c(=O)[nH]c(N)nc54)C[C@@H]3O)[C@@H](COP(=O)(O)O[C@H]3C[C@H](n4cc(C)c(=O)[nH]c4=O)O[C@@H]3COP(=O)(O)O[C@H]3C[C@H](n4cnc5c(=O)[nH]c(N)nc54)O[C@@H]3COP(=O)(O)O[C@H]3C[C@H](n4cnc5c(=O)[nH]c(N)nc54)O[C@@H]3COP(=O)(O)O[C@H]3C[C@H](n4cc(C)c(=O)[nH]c4=O)O[C@@H]3COP(=O)(O)O[C@H]3C[C@H](n4cnc5c(=O)[nH]c(N)nc54)O[C@@H]3COP(=O)(O)O[C@H]3C[C@H](n4cc(C)c(=O)[nH]c4=O)O[C@@H]3COP(=O)(O)O[C@H]3C[C@H](n4cnc5c(=O)[nH]c(N)nc54)O[C@@H]3COP(=O)(O)O[C@H]3C[C@H](n4c(C(F)(F)F)nc5c(=O)[nH]c(N)nc54)O[C@@H]3COP(=O)(O)O[C@H]3C[C@H](n4cc(C)c(=O)[nH]c4=O)O[C@@H]3COP(=O)(O)O[C@H]3C[C@H](n4cc(C)c(=O)[nH]c4=O)O[C@@H]3COP(=O)(O)O[C@H]3C[C@H](n4cnc5c(=O)[nH]c(N)nc54)O[C@@H]3COP(=O)(O)O[C@H]3C[C@H](n4cnc5c(=O)[nH]c(N)nc54)O[C@@H]3COP(=O)(O)O)O2)c(=O)[nH]c1=O | 8.1 °C | Unstable | – | 26 s | – | –
Cc1cn([C@H]2C[C@H](OP(=O)(O)OC[C@H]3O[C@@H](n4c(C(F)(F)F)nc5c(=O)[nH]c(N)nc54)C[C@@H]3OP(=O)(O)OC[C@H]3O[C@@H](n4cnc5c(=O)[nH]c(N)nc54)C[C@@H]3OP(=O)(O)OC[C@H]3O[C@@H](n4cc(C)c(=O)[nH]c4=O)C[C@@H]3OP(=O)(O)OC[C@H]3O[C@@H](n4cnc5c(=O)[nH]c(N)nc54)C[C@@H]3OP(=O)(O)OC[C@H]3O[C@@H](n4cc(C)c(=O)[nH]c4=O)C[C@@H]3OP(=O)(O)OC[C@H]3O[C@@H](n4c(C(F)(F)F)nc5c(=O)[nH]c(N)nc54)C[C@@H]3OP(=O)(O)OC[C@H]3O[C@@H](n4cnc5c(=O)[nH]c(N)nc54)C[C@@H]3OP(=O)(O)OC[C@H]3O[C@@H](n4cc(C)c(=O)[nH]c4=O)C[C@@H]3OP(=O)(O)OC[C@H]3O[C@@H](n4cc(C)c(=O)[nH]c4=O)C[C@@H]3OP(=O)(O)OC[C@H]3O[C@@H](n4c(C(F)(F)F)nc5c(=O)[nH]c(N)nc54)C[C@@H]3OP(=O)(O)OC[C@H]3O[C@@H](n4cnc5c(=O)[nH]c(N)nc54)C[C@@H]3O)[C@@H](COP(=O)(O)O[C@H]3C[C@H](n4cc(C)c(=O)[nH]c4=O)O[C@@H]3COP(=O)(O)O[C@H]3C[C@H](n4cnc5c(=O)[nH]c(N)nc54)O[C@@H]3COP(=O)(O)O[C@H]3C[C@H](n4c(C(F)(F)F)nc5c(=O)[nH]c(N)nc54)O[C@@H]3COP(=O)(O)O)O2)c(=O)[nH]c1=O | 30 °C | Unstable | Stable | 18.6 s | Active | –
Cc1cn([C@H]2C[C@H](OP(=O)(O)OC[C@H]3O[C@@H](n4cnc5c(=O)[nH]c(N)nc54)C[C@@H]3OP(=O)(O)OC[C@H]3O[C@@H](n4cc(C)c(=O)[nH]c4=O)C[C@@H]3OP(=O)(O)OC[C@H]3O[C@@H](n4cnc5c(=O)[nH]c(N)nc54)C[C@@H]3OP(=O)(O)OC[C@H]3O[C@@H](n4cnc5c(=O)[nH]c(N)nc54)C[C@@H]3OP(=O)(O)OC[C@H]3O[C@@H](n4cc(C)c(=O)[nH]c4=O)C[C@@H]3OP(=O)(O)OC[C@H]3O[C@@H](n4cc(C)c(=O)[nH]c4=O)C[C@@H]3OP(=O)(O)OC[C@H]3O[C@@H](n4cnc5c(=O)[nH]c(N)nc54)C[C@@H]3OP(=O)(O)OC[C@H]3O[C@@H](n4cnc5c(=O)[nH]c(N)nc54)C[C@@H]3O)[C@@H](COP(=O)(O)O[C@H]3C[C@H](n4cc(C)c(=O)[nH]c4=O)O[C@@H]3COP(=O)(O)O[C@H]3C[C@H](n4cnc5c(=O)[nH]c(N)nc54)O[C@@H]3COP(=O)(O)O[C@H]3C[C@H](n4cnc5c(=O)[nH]c(N)nc54)O[C@@H]3COP(=O)(O)O[C@H]3C[C@H](n4cc(C)c(=O)[nH]c4=O)O[C@@H]3COP(=O)(O)O[C@H]3C[C@H](n4cc(C)c(=O)[nH]c4=O)O[C@@H]3COP(=O)(O)O[C@H]3C[C@H](n4cnc5c(=O)[nH]c(N)nc54)O[C@@H]3COP(=O)(O)O[C@H]3C[C@H](n4cnc5c(=O)[nH]c(N)nc54)O[C@@H]3COP(=O)(O)O)O2)c(=O)[nH]c1=O | – | Stable | – | 19.2 s | inactive | inactive
